Reference: ChEMBL document CHEMBL3627601, “Poly(amidoamine) dendrimers show carbonic anhydrase inhibitory activity against α-, β-, γ- and η-class enzymes” (Bioorg Med Chem, 2015)

Key:
[1] = Inhibition of Candida glabrata beta-carbonic anhydrase preincubated for 15 mins by stopped-flow CO2 hydration assay; design: species or system Nakaseomyces glabratus
[2] = Inhibition of Cryptococcus neoformans beta-carbonic anhydrase preincubated for 15 mins by stopped-flow CO2 hydration assay
[3] = Inhibition of Porphyromonas gingivalis beta-carbonic anhydrase preincubated for 15 mins by stopped-flow CO2 hydration assay
[4] = Inhibition of Leishmania donovani chagasi beta-carbonic anhydrase preincubated for 15 mins by stopped-flow CO2 hydration assay
[5] = Inhibition of Trypanosoma cruzi alpha-carbonic anhydrase preincubated for 15 mins by stopped-flow CO2 hydration assay
[6] = Inhibition of Plasmodium falciparum eta-carbonic anhydrase preincubated for 15 mins by stopped-flow CO2 hydration assay
[7] = Inhibition of Porphyromonas gingivalis gamma-carbonic anhydrase preincubated for 15 mins by stopped-flow CO2 hydration assay
[8] = Inhibition of Vibrio cholerae alpha-carbonic anhydrase preincubated for 15 mins by stopped-flow CO2 hydration assay

| SMILES | Ki [1] [nM] | Ki [2] [nM] | Ki [3] [nM] | Ki [4] [nM] | Ki [5] [nM] | Ki [6] [nM] | Ki [7] [nM] | Ki [8] [nM] |
| --- | --- | --- | --- | --- | --- | --- | --- | --- |
| NS(=O)(=O)c1ccc(C(=O)NCCNC(=O)CCN(CCC(=O)NCCNC(=O)c2ccc(S(N)(=O)=O)cc2)CCN(CCC(=O)NCCNC(=O)c2ccc(S(N)(=O)=O)cc2)CCC(=O)NCCNC(=O)c2ccc(S(N)(=O)=O)cc2)cc1 | 427 | 24 | 84.9 | 75.4 | 17.7 | 69.7 | 405 | 47.2 |
| NS(=O)(=O)c1ccc(C(=O)NCCNC(=O)CCN(CCNC(=O)CCN(CCC(=O)NCCN(CCC(=O)NCCNC(=O)c2ccc(S(N)(=O)=O)cc2)CCC(=O)NCCNC(=O)c2ccc(S(N)(=O)=O)cc2)CCN(CCC(=O)NCCN(CCC(=O)NCCNC(=O)c2ccc(S(N)(=O)=O)cc2)CCC(=O)NCCNC(=O)c2ccc(S(N)(=O)=O)cc2)CCC(=O)NCCN(CCC(=O)NCCNC(=O)c2ccc(S(N)(=O)=O)cc2)CCC(=O)NCCNC(=O)c2ccc(S(N)(=O)=O)cc2)CCC(=O)NCCNC(=O)c2ccc(S(N)(=O)=O)cc2)cc1 | 342 | 83.6 | 77 | 85.6 | 95.4 | 58.6 | 563 | 8.1 |
